Measurements published in patent USRE40851E1, “3,3-diphenylpropylamines, their use and preparation” (Pfizer Health AB, priority 1992, dated 2009).
pKd, pKi: −log10 of the molar value. Structures can show the parent of a compound that is named as a salt.

What was measured:
[1] = biological target: muscarinic receptor (urinary bladder); test: Muscarinic receptor binding, (−)3H-QNB competition, urinary bladder homogenate; settings: guinea pig urinary bladder, 2 nM (−)3H-QNB, 25° C., 60 minutes
Description: (§1) The tissue preparations and the general methods used have been described in detail elsewhere for the parotid gland^1, urinary bladder^2, heart^3 and cerebral cortex^3, respectively. Male guinea pigs (250-400 g body weight) were killed by a blow on the neck and exsanguinated. The brain was placed on ice for dissection of the cerebral cortex (grey matter only). Urinary bladders, hearts and parotid glands were dissected in a Krebs-Henseleit buffer (pH 7.4) containing 1 mM phenyl methyl sulfonyl fluoride (PMSF, a protease inhibitor). Dissected tissues were homogenized in an ice-cold sodium-potassium phosphate buffer (50 mM, pH 7.4) containing 1 mM PMSF, using a Polytron PT-10 instrument (bladder, heart, parotid) and a Potter-Elvehjem Teflon homogenizer (cortex). All homogenates were finally diluted with the ice-cold phosphate/PMSF buffer to a final protein concentration of ≦0.3 mg/ml and immediately used in the receptor binding assays. Protein was determined by the method of Lowry et al. (1951)^4, using bovine serum albumin as the standard.
(§2) The muscarinic receptor affinities of the unlabelled compounds A to D identified above were derived from competition experiments in which the ability to inhibit the receptor specific binding of (−)^3H-QNB (1-quinuclidinyl[phenyl-4-^3H]benzilate, 32.9 Ci/mmole) was monitored as previously described^3,5. Each sample contained 10 μl of (−)^3H-QNB (final concentration 2 nM), 10 μl solution of test compound and 1.0 ml tissue homogenate. Triplicate samples were incubated under conditions of equilibrium, i.e., at 25° C. for 60 minutes (urinary bladder), 80 minutes (heart and cerebral cortex) or 210 minutes (parotid gland), respectively. Non-specific binding was determined in the presence of 10 μM unlabelled atropine. Incubations were terminated by centrifugation^2, and the radioactivity in the pellets was determined by liquid scintillation spectrometry^2.
(§3) IC50-values (concentration of unlabelled compound producing 50% inhibition of the receptor specific (−)^3H-QNB binding) were graphically determined from the experimental concentration-inhibition curves. Affinities, expressed as the dissociation constants Ki, were calculated by correcting the IC50 for the radioligand-induced parallel shift and differences in receptor concentration, using the method of Jacobs et al. (1975)^6. The binding parameters for (−)^3H-QNB (KD and receptor densities) used in these calculations were determined in separate series of experiments^1-3.

[2] = biological target: muscarinic receptor (cerebral cortex); test: Muscarinic receptor binding, (−)3H-QNB competition, cerebral cortex homogenate; settings: guinea pig cerebral cortex, 2 nM (−)3H-QNB, 25° C., 80 minutes
Description: as §1, §2, §3

[3] = biological target: Smooth muscle strips of the urinary bladder (carbachol contraction); test: Functional in vitro study: antagonism of carbachol-induced contraction of urinary bladder smooth muscle strips; settings: guinea pig urinary bladder strips, carbachol agonist, 60 min incubation with antagonist; read-out: KH bladder
Description: Male guinea pigs, weighing about 300 g, were killed by a blow on the neck and exsanguinated. Smooth muscle strips of the urinary bladder were dissected in a Krebs-Henseleit solution (pH 7.4). The strip preparations were vertically mounted between two hooks in thermostatically controlled (37° C.) organ baths (5 ml). One of the hooks was adjustable and connected to a force transducer (FT 03, Grass Instruments). The Krebs-Henseleit solution was continuously bubbled with carbogen gas (93.5% O2/6.5% CO2) to maintain the pH at 7.4. Isometric tension was recorded by a Grass Polygraph (Model 79D). A resting tension of approximately 5 mN was initially applied on each muscle strip and the preparations were allowed to stabilize for at least 45 min. The resting tension was repeatedly adjusted and the preparations were washed several times during the stabilization period.
Carbachol (carbamylcholine chloride) was used as the standard agonist. In each experiment, the viability of the preparations and the reproducibility of their contractile responses were initially tested by three consecutive additions of a submaximal concentration (3×10^−6M) of carbachol. A complete concentration-response curve to carbachol was then generated by cumulative addition of carbachol to the organ-bath (i.e., stepwise increase of the agonist concentration until the maximal contractile response was reached), followed by washing out and a resting period of at least 15 min. before a fix concentration of the test compound (antagonist) was added to the organ-bath. After 60 min. of incubation with the antagonist, a second cumulative concentration-response curve to carbachol was generated. Responses were expressed as per cent of the maximal response to carbachol. EC50-values for carbachol in the absence (control) and presence of antagonist were graphically derived and dose ratios (r) were calculated. Dissociation constants, KB, for the antagonists were calculated using equation (1)^7, where [A] is the concentration of test compound. KB=[A]/r−1 (1)

[4] = Functional in vivo study in anaesthetized cats: blood pressure, blood flow, heart rate; settings: cat
Description: (§4) Adult cats were anaesthetized with mebumal (42 mg/kg) intraperitoneally. When the animal was asleep, an infusion cannula was inserted into the foreleg vein and the cat was given alpha-chloralose. During the experiment the animal was placed on an operation table warmed up with a feedback controlled electric pad. The cat was tracheotomized. For blood pressure registration, a polyethylene catheter was inserted into the femoral artery, with the tip in aorta, and connected via a three-way stopcock to a blood pressure transducer and a Grass polygraph. Heart rate was registered by connecting a tachograph to a driver amplifier which received the signal from the blood pressure transducer. Blood flow in the central mesenteric artery was measured by an ultrasound flow probe around the artery connected to a transonic blood flow meter and then to a Grass polygraph for registration of the flow. For infusion of the test substances, compounds D and A (as identified above), a polyethylene catheter was inserted into the femoral vein three-way stopcock to a syringe placed in an infusion pump (Sage instrument).
Through an incision in the proximal urethra, a catheter was inserted into the urinary bladder. At the beginning of each experiment, this catheter was connected to an open vessel, which was filled with 38° C. tempered physiological saline and placed above the animal. During this stabilization period the bladder relaxed, leading to a filling of the bladder with saline, under constant hydrostatic pressure. After the stabilization period, the bladder catheter was connected to a pressure transducer, for registration of intravesical pressure. Blood pressure, heart rate, blood flow and bladder pressure were recorded simultaneously and continuously throughout the experiment. The animals were left for at least 45 minutes to achieve steady state in cardiovascular variables before starting the experiment.
Bladder pressure was measured at 8 minutes after the end of infusion of the test substance. The surgical preparation was tested by intravenous injection of 0.25 μg/kg b.w. of noradrenalin and 0.5 μg/kg b.w. of acetylcholine.
To study the dose-response relationship of compound D identified above, the substance was administered at the doses 0.000 (physiological saline), 0.003, 0.010, 0.030 and 0.100 mg/kg, respectively, with infusion during 2 minutes and an infusion volume of 1 mL/kg. Every cat got all doses and was left to reestablish at least 45 minutes between the 0.003 and 0.010 mg/kg doses, and 60 minutes between the 0.030 and 0.100 mg/kg doses.
(§5) The results are presented in absolute values and calculated as mean value±standard deviation

[5] = test system: acetylcholine-induced effect on the bladder; test: Functional in vivo study in anaesthetized cats: bladder pressure; settings: cat, intravenous infusion
Description: as §4, with “For infusion of the test substances, compounds D and A (as identified above), a polyethylene catheter was inserted into the femoral vein three-way stopcock to a syringe placed in an infusion pump (Sage instrument).” left out
Through an incision in the proximal urethra, a catheter was inserted into the urinary bladder. […] Blood pressure, heart rate, blood flow and bladder pressure were recorded simultaneously and continuously throughout the experiment. […]
Bladder pressure was measured at 8 minutes after the end of infusion of the test substance. […]
as §5

[6] = intravenous, highest dose (0.3 mg/kg)

Row | Compound | pKi [1] | pKi [2] | pKd [3] | increase of diastolic blood pressure ([4]; intravenous, 0,3 mg/kg) [%] | increase of systolic blood pressure ([4]; intravenous, 0,3 mg/kg) [%] | increase of the blood flow in superior mesenterica artery ([4]; intravenous, 0.003 mg/kg) [%] | increase of the blood flow in superior mesenterica artery ([4]; intravenous, 0.01 mg/kg) [%] | increase of the blood flow in superior mesenterica artery ([4]; intravenous, 0.03 mg/kg) [%] | effect on the blood pressure ([4]; intravenous, doses other than 0,3 mg/kg) | decrease of heart rate [4, 6] [%] | increase in blood flow [4, 6] [%] | inhibition of the acetylcholine-induced effect on the bladder (bladder pressure) ([5]; bladder pressure 8 minutes after end of infusion) | efficiency of bladder pressure inhibition relative to prior art compound A ([5]; versus compound A)
1 | Cc1ccc(O)c(C(CCN(C(C)C)C(C)C)c2ccccc2)c1 (single isomer, unassigned; (+)) [(A), (+)N,N-diisopropyl-3-(2-hydroxy-5-methylphenyl)-3-phenylpropylamine, hydrochloride] | 8.57 | 9.10 | 8.52 |  |  |  |  |  |  |  |  |  | 
2 | CC(C)N(CCC(c1ccccc1O)c1cc(Cl)ccc1O)C(C)C (single isomer, unassigned; (+)) [(C), (+)N,N-diisopropyl-3-(5-chloro-2-hydroxyphenyl)-3-(2-hydroxyphenylpropylamine, hydrochloride] | 8.60 | 9.40 | 8.59 |  |  |  |  |  |  |  |  |  | 
3 | CC(C)N(CCC(c1ccccc1O)c1ccccc1O)C(C)C [(B), N,N-diisopropyl-3-bis-(2-hydroxyphenyl)propylamine hydrochloride] | 7.99 | 8.82 |  |  |  |  |  |  |  |  |  |  | 
4 | CC(C)N(CCC(c1ccccc1)c1cc(CO)ccc1O)C(C)C (stereo not drawn) [(D), (+)-N,N-diisopropyl-3-(2-hydroxy-5-hydroxymethylphenyl)-3-phenylpropylamine(+)mandelic acid salt] | 8.35 | 9.15 | 8.39 | 10 | 6 | 8 | 17 | 21 | little or no effect | 9 | 10 | dose-dependent inhibition | about ten times more efficient
